Legend:
Assay type in all cases: in vivo
soybean (Gl) = assay: Test Example 6: crop plant selectivity by upland field soil treatment (soybean), phytotoxicity; parameters: scale not given here; conditions: dose 1.6 g ai/10a, 21st day after application
Method in brief: (§1)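 Scoring took place 21 days after treatment using a set grading standard, covering both weed control and soybean injury. Seeds of soybean and weed species went into sand-filled pots under a soil cover before soil treatment and greenhouse culture.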

Johnsongrass (So) = assay: Test Example 6: crop plant selectivity by upland field soil treatment (soybean), herbicidal effects; conditions: dose 1.6 g ai/10a, 21st day after application
Procedure: (§2) (Test on Crop Plant Selectivity by Upland Field Soil Treatment)
(§3) In a plastic pot (surface area: 600 cm^2) filled with sand, soybean (Gl), Diaitaria ciliaris (Di), green foxtail (Se), Johnsongrass (So), pale smartweed (Po), slender amaranth (Am), common lambsquarters (Ch) and China jute (Ab) were sown and covered with soil. […] The plants were then cultured in a green house, and the evaluation of the herbicidal effects and phytotoxicity was conducted on the 21st day after the application in accordance with the standards as identified in Table 47. Symbol—represents “not tested”.

Diaitaria ciliaris (Di) [1] = assay: as above; conditions: dose 1.6 g ai/10a, 21st day after application
Procedure: as §2, §3

[2] = system: common lambsquarters (Ch); assay: as above; parameters: scale not given here; conditions: dose 1.6 g ai/10a, 21st day after application
Method in brief: as §1

green foxtail (Se) [3] = assay: as above; parameters: scale not given here; conditions: dose 1.6 g ai/10a, 21st day after application
Method in brief: as §1

slender amaranth (Am) [4] = assay: as above; parameters: scale not given here; conditions: dose 1.6 g ai/10a, 21st day after application
Method in brief: as §1

China jute (Ab) [5] = assay: as above; parameters: scale not given here; conditions: dose 1.6 g ai/10a, 21st day after application
Method in brief: as §1

pale smartweed (Po) [6] = assay: as above; parameters: scale not given here; conditions: dose 1.6 g ai/10a, 21st day after application
Method in brief: as §1

monochoria (Mo) = assay: Test Example 1: herbicidal effects by paddy field soil treatment; conditions: 100 g of the active ingredient per 10 ares, 21st day after the application, index 0-5 of Table 47;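 also: grade of growth control; 5 = at least 90%; 4 = 70 to 90%; 3 = 50 to 70%; 2 = 30 to 50%; 1 = 10 to 30%; 0 = under 10%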
Method in brief: (§4)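 Greenhouse pot test in flooded paddy soil, dosed at 100 g a.i. per 10 ares; effect scored on day 21.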

barnyardgrass (Ec) [7] = assay: as above; conditions: 100 g of the active ingredient per 10 ares, 21st day after the application, index 0-5 of Table 47
Method in brief: as §4

bulrush (Sc) = assay: as above; conditions: 100 g of the active ingredient per 10 ares, 21st day after the application, index 0-5 of Table 47;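 also: grade of growth control; 5 = at least 90%; 4 = 70 to 90%; 3 = 50 to 70%; 2 = 30 to 50%; 1 = 10 to 30%; 0 = under 10%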
Method in brief: as §4

Diaitaria ciliaris (Di) [8] = assay: Test Example 4: crop plant selectivity by upland field soil treatment (cotton), herbicidal effects; conditions: evaluated 21st day after application
Procedure: as §2
In a plastic pot (surface area: 600 cm^2) filled with sand, cotton (Go), Diaitaria ciliaris (Di), green foxtail (Se), pale smartweed (Po), slender amaranth (Am), common lambsquarters (Ch) and China jute (Ab) were sown and covered with soil. […] The plants were then cultured in a green house, and the evaluation of the herbicidal effects and phytotoxicity was conducted on the 21st day after the application in accordance with the standards as identified in Table 47. Symbol—represents “not tested”.

cotton (Go) = assay: Test Example 4: crop plant selectivity by upland field soil treatment (cotton), phytotoxicity; parameters: scale not given here; conditions: evaluated 21st day after application
Method in brief: (§5)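 Upland soil-treatment selectivity test: scoring on day 21 post-application in a greenhouse, rating crop phytotoxicity on cotton and herbicidal effect on co-sown weeds. Seeds were sown in sand-filled pots and covered with soil before treatment.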

Digitaria ciliaris (Di) = assay: Test Example 2: herbicidal effects by upland field soil treatment; conditions: 100 g of the active ingredient per 10 ares, evaluated on the 21st day after application;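 also: grade of growth control; 5 = at least 90%; 4 = 70 to 90%; 3 = 50 to 70%; 2 = 30 to 50%; 1 = 10 to 30%; 0 = under 10%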
From the text: (§6) (Test on Herbicidal Effects by Upland Field Soil Treatment)

[9] = system: common lambsquarters (Ch); assay: as above; conditions: 100 g of the active ingredient per 10 ares, evaluated on the 21st day after application
From the text: as §6

slender amaranth (Am) [10] = assay: as above; conditions: 100 g of the active ingredient per 10 ares, evaluated on the 21st day after application
From the text: as §6

pale smartweed (Po) [11] = assay: as above; conditions: 100 g of the active ingredient per 10 ares, evaluated on the 21st day after application
From the text: as §6

barnyardgrass (Ec) [12] = assay: as above; conditions: 100 g of the active ingredient per 10 ares, evaluated on the 21st day after application
From the text: as §6

rice flatsedge (Ci) [13] = assay: as above; conditions: 100 g of the active ingredient per 10 ares, evaluated on the 21st day after application
From the text: as §6

[14] = system: common lambsquarters (Ch); assay: Test Example 3: herbicidal effects by upland field foliage treatment; parameters: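 grade of growth control; 5 = at least 90%; 4 = 70 to 90%; 3 = 50 to 70%; 2 = 30 to 50%; 1 = 10 to 30%; 0 = under 10%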; conditions: 100 g active ingredient per 10 ares, evaluated 14th day after treatment
Method in brief: (§7)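 Scoring used a standard effect scale on the 14th day post-treatment, with plants held in a greenhouse throughout. Foliar application was made to weeds raised from seed in sand-filled pots for 2 weeks.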

slender amaranth (Am) [15] = assay: as above; parameters: scale not given here; conditions: 100 g active ingredient per 10 ares, evaluated 14th day after treatment
Method in brief: as §7

pale smartweed (Po) [16] = assay: as above; parameters: scale not given here; conditions: 100 g active ingredient per 10 ares, evaluated 14th day after treatment
Method in brief: as §7

Diaitaria ciliaris (Di) [17] = assay: as above; parameters: scale not given here; conditions: 100 g active ingredient per 10 ares, evaluated 14th day after treatment
Method in brief: as §7

barnyardgrass (Ec) [18] = assay: as above; parameters: scale not given here; conditions: 100 g active ingredient per 10 ares, evaluated 14th day after treatment
Method in brief: as §7

rice flatsedge (Ci) [19] = assay: as above; parameters: scale not given here; conditions: 100 g active ingredient per 10 ares, evaluated 14th day after treatment
Method in brief: as §7

[20] = system: common lambsquarters (Ch); assay: Test Example 4: crop plant selectivity by upland field soil treatment (cotton), herbicidal effects; parameters: scale not given here; conditions: evaluated 21st day after application
Method in brief: as §5

green foxtail (Se) [21] = assay: as above; parameters: scale not given here; conditions: evaluated 21st day after application
Method in brief: as §5

slender amaranth (Am) [22] = assay: as above; parameters: scale not given here; conditions: evaluated 21st day after application
Method in brief: as §5

China jute (Ab) [23] = assay: as above; parameters: scale not given here; conditions: evaluated 21st day after application
Method in brief: as §5

pale smartweed (Po) [24] = assay: as above; parameters: scale not given here; conditions: evaluated 21st day after application
Method in brief: as §5

For `CCc1cc2c(-c3cn(C)c(C(F)(F)F)cc3=O)c(F)cc(Cl)c2o1` [Compound 9-2], which “Phytotoxicity Gl” value (soybean (Gl)) is on record?
Its value is 1.

What about the “Herbicidal effects So” value (Johnsongrass (So)) of the same molecule?
The value was 5.

And the “Herbicidal effects Di” value (Diaitaria ciliaris (Di) [1])?
Its value is 5.

And the “Herbicidal effects Ch” value [2]?
The value was 5.

And the “Herbicidal effects Se” value (green foxtail (Se) [3])?
The value was 5.

And the “Herbicidal effects Am” value (slender amaranth (Am) [4])?
The value was 5.

What about the “Herbicidal effects Ab” value (China jute (Ab) [5]) of the same molecule?
Its value is 5.

And the “Herbicidal effects Po” value (pale smartweed (Po) [6])?
The value was 5.

What about the “Herbicidal effects Mo” value (monochoria (Mo)) of the same molecule?
Its value is 5.

What about the “Herbicidal effects Ec” value (barnyardgrass (Ec) [7]) of the same molecule?
Its value is 5.

What about the “Herbicidal effects Sc” value (bulrush (Sc)) of the same molecule?
Its value is 5.

What about the “Herbicidal effects Di” value (Diaitaria ciliaris (Di) [8]; dose 1.6 g ai/10 a) of the same molecule?
The value was 5.

What about the “Herbicidal effects Di” value (Diaitaria ciliaris (Di) [8]; dose 6.3 g ai/10 a) of the same molecule?
Its value is 5.

And the “Phytotoxicity Go” value (cotton (Go); dose 1.6 g ai/10 a)?
Its value is 0.

What about the “Phytotoxicity Go” value (cotton (Go); dose 6.3 g ai/10 a) of the same molecule?
Its value is 0.

And the “Herbicidal effects Di” value (Digitaria ciliaris (Di))?
The value was 5.

And the “Herbicidal effects Ch” value [9]?
Its value is 5.

What about the “Herbicidal effects Am” value (slender amaranth (Am) [10]) of the same molecule?
The value was 5.

What about the “Herbicidal effects Po” value (pale smartweed (Po) [11]) of the same molecule?
The value was 5.

What about the “Herbicidal effects Ec” value (barnyardgrass (Ec) [12]) of the same molecule?
The value was 5.

And the “Herbicidal effects Ci” value (rice flatsedge (Ci) [13])?
The value was 5.

What about the “Herbicidal effects Ch” value [14] of the same molecule?
Its value is 5.

And the “Herbicidal effects Am” value (slender amaranth (Am) [15])?
The value was 5.

And the “Herbicidal effects Po” value (pale smartweed (Po) [16])?
Its value is 5.

And the “Herbicidal effects Di” value (Diaitaria ciliaris (Di) [17])?
Its value is 5.

And the “Herbicidal effects Ec” value (barnyardgrass (Ec) [18])?
The value was 5.

And the “Herbicidal effects Ci” value (rice flatsedge (Ci) [19])?
The value was 5.

What about the “Herbicidal effects Ch” value ([20]; dose 1.6 g ai/10 a) of the same molecule?
The value was 5.

What about the “Herbicidal effects Ch” value ([20]; dose 6.3 g ai/10 a) of the same molecule?
The value was 5.

What about the “Herbicidal effects Se” value (green foxtail (Se) [21]; dose 1.6 g ai/10 a) of the same molecule?
The value was 5.

What about the “Herbicidal effects Se” value (green foxtail (Se) [21]; dose 6.3 g ai/10 a) of the same molecule?
The value was 5.

And the “Herbicidal effects Am” value (slender amaranth (Am) [22]; dose 1.6 g ai/10 a)?
The value was 5.

And the “Herbicidal effects Am” value (slender amaranth (Am) [22]; dose 6.3 g ai/10 a)?
The value was 5.

What about the “Herbicidal effects Ab” value (China jute (Ab) [23]; dose 1.6 g ai/10 a) of the same molecule?
Its value is 5.

And the “Herbicidal effects Ab” value (China jute (Ab) [23]; dose 6.3 g ai/10 a)?
Its value is 5.

What about the “Herbicidal effects Po” value (pale smartweed (Po) [24]; dose 1.6 g ai/10 a) of the same molecule?
Its value is 5.

What about the “Herbicidal effects Po” value (pale smartweed (Po) [24]; dose 6.3 g ai/10 a) of the same molecule?
Its value is 5.
